Assay results reported in US10766869B2, “Triazoles for the treatment of demyelinating dieases” (Vertex Pharmaceuticals Incorporated, priority 2015, dated 2020).

System: primary rat mixed cortical cells
Experiment: In vitro myelination assay (MBP positive myelin strands, fold myelin pixels above background)
Format: cell-based
Conditions: Rattus norvegicus, relative to baseline of no added compound; for fold induction at 1 µM: 1.0 μM compound, read-out: Fold myelin pixels above background, 1.0 μM; for fold induction at 10 µM: 10.0 μM compound, read-out: Fold myelin pixels above background, 10.0 μM
Method in brief: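 Compounds at 1.0 and 10.0 μM were incubated 14 days with dissociated P1 rat cortical cells, which were then fixed and immunostained for MBP. Myelination was scored as fold MBP myelin pixels per well over the no-compound baseline.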

Compound	fold induction at 1 µM	fold induction at 10 µM
Fc1cc(Nc2ncn(-c3cccc(F)c3)n2)cc(N2CCOCC2)c1 [Compound 158, N-(3-fluoro-5-morpholino-phenyl)-1-(3-fluorophenyl)-1,2,4-triazol-3-amine]	10 to 100	100 to 1000
Cc1cc(Nc2ncn(-c3ccccc3)n2)cc(N2CCNCC2)c1 [Compound 159, N-(3-methyl-5-piperazin-1-yl-phenyl)-1-phenyl-1,2,4-triazol-3-amine]	1000 to 10000	≤ 1
Cc1cc(Nc2ncn(-c3ccccc3)n2)cc(C2=CCN(C3COC3)C2)c1 [Compound 160, N-[3-methyl-5-[1-(oxetan-3-yl)-2,5-dihydropyrrol-3-yl]phenyl]-1-phenyl-1,2,4-triazol-3-amine]	1000 to 10000	≤ 1
Cc1cc(Nc2ncn(-c3cc(F)cc(F)c3)n2)cc(N2CCC(N3CCCC3=O)CC2)c1 [Compound 161, 1-[1-[3-[[1-(3,5-difluorophenyl)-1,2,4-triazol-3-yl]amino]-5-methyl-phenyl]-4-piperidyl]pyrrolidin-2-one]	10 to 100	10 to 100
COCC1CCN(c2cc(C)cc(Nc3ncn(-c4cc(F)cc(F)c4)n3)c2)CC1 [Compound 162, 1-(3,5-difluorophenyl)-N-[3-[4-(methoxymethyl)-1-piperidyl]-5-methyl-phenyl]-1,2,4-triazol-3-amine]	≤ 1	≤ 1
O=c1cc(-n2cnc(Nc3cc(C(F)F)cc(N4CCN(C5COC5)CC4)c3)n2)cc[nH]1 [Compound 163, 4-[3-[3-(difluoromethyl)-5-[4-(oxetan-3-yl)piperazin-1-yl]anilino]-1,2,4-triazol-1-yl]-1H-pyridin-2-one]	100 to 1000	≤ 1
COC1CCN(c2cc(C)cc(Nc3ncn(-c4cc(F)cc(F)c4)n3)c2)C1 (stereo not shown) [Compound 164, 1-(3,5-difluorophenyl)-N-[3-(3-methoxypyrrolidin-1-yl)-5-methyl-phenyl]-1,2,4-triazol-3-amine]	1 to 10	1 to 10
c1ccc(-n2cnc(Nc3cc(C4CCOC4)cc(N4CCOCC4)c3)n2)cc1 (stereo not shown) [Compound 165, N-(3-morpholino-5-tetrahydrofuran-3-yl-phenyl)-1-phenyl-1,2,4-triazol-3-amine]	100 to 1000	10 to 100
Fc1cc(Nc2ncn(-c3cccc(F)c3)n2)cc(N2CCCOCC2)c1 [Compound 166, N-[3-fluoro-5-(1,4-oxazepan-4-yl)phenyl]-1-(3-fluorophenyl)-1,2,4-triazol-3-amine]	100 to 1000	10 to 100
Fc1ccc(-n2cnc(Nc3cc(F)cc(N4CCCC4)c3)n2)cc1 [Compound 167, 1-(4-fluorophenyl)-N-(3-fluoro-5-pyrrolidin-1-yl-phenyl)-1,2,4-triazol-3-amine]	≤ 1	100 to 1000
Brc1cc(Nc2ncn(-c3ccccc3)n2)cc(N2CCOCC2)c1 [Compound 168, N-(3-bromo-5-morpholino-phenyl)-1-phenyl-1,2,4-triazol-3-amine]	1000 to 10000	1000 to 10000
Cc1cc(Nc2ncn(-c3ccc(F)c(F)c3)n2)cc(N2CCC(C3COC3)CC2)c1 [Compound 169, 1-(3,4-difluorophenyl)-N-[3-methyl-5-[4-(oxetan-3-yl)-1-piperidyl]phenyl]-1,2,4-triazol-3-amine]	10 to 100	1 to 10
Fc1cc(F)cc(-n2cnc(Nc3cc(C4CC4)nc(N4CCCC4)c3)n2)c1 [Compound 170, 2-cyclopropyl-N-[1-(3,5-difluorophenyl)-1,2,4-triazol-3-yl]-6-pyrrolidin-1-yl-pyridin-4-amine]	10 to 100	100 to 1000
Cc1cc(Nc2ncn(-c3cc(F)cc(F)c3)n2)cc(N2CC3(COC3)C2)c1 [Compound 171, 1-(3,5-difluorophenyl)-N-[3-methyl-5-(6-oxa-2-azaspiro[3.3]heptan-2-yl)phenyl]-1,2,4-triazol-3-amine]	10 to 100	100 to 1000
Cc1cc(Nc2ncn(-c3ccccc3)n2)cc(N2CCN(C3CCCOC3)CC2)c1 (stereo not shown) [Compound 172, N-[3-methyl-5-(4-tetrahydropyran-3-ylpiperazin-1-yl)phenyl]-1-phenyl-1,2,4-triazol-3-amine]	1000 to 10000	1 to 10
CCc1cc(Nc2ncn(-c3cc(F)cc(F)c3)n2)cc(N2CC(N3CCOCC3)C2)c1 [Compound 173, 1-(3,5-difluorophenyl)-N-[3-ethyl-5-(3-morpholinoazetidin-1-yl)phenyl]-1,2,4-triazol-3-amine]	100 to 1000	10 to 100

Compound	fold induction at 1 µM	fold induction at 10 µM
Cc1cc(Nc2ncn(-c3ccncn3)n2)cc(N2CCN(C3COC3)CC2)c1 [Compound 174, N-[3-methyl-5-[4-(oxetan-3-yl)piperazin-1-yl]phenyl]-1-pyrimidin-4-yl-1,2,4-triazol-3-amine]	1 to 10	10 to 100
Fc1cccc(-n2cnc(Nc3cc(N4CCN(C5COC5)CC4)cc(C(F)(F)F)c3)n2)c1 [Compound 175, 1-(3-fluorophenyl)-N-[3-[4-(oxetan-3-yl)piperazin-1-yl]-5-(trifluoromethyl)phenyl]-1,2,4-triazol-3-amine]	1000 to 10000	≤ 1
Cc1cc(Nc2ncn(-c3ccncn3)n2)cc(N2CCN(C3CC3)CC2)c1 [Compound 176, N-[3-(4-cyclopropylpiperazin-1-yl)-5-methyl-phenyl]-1-pyrimidin-4-yl-1,2,4-triazol-3-amine]	100 to 1000	100 to 1000
Fc1cc(Nc2ncn(-c3ccc(F)cc3F)n2)cc(NC2CNC2)c1 [Compound 177, N1-(azetidin-3-yl)-N3-[1-(2,4-difluorophenyl)-1,2,4-triazol-3-yl]-5-fluoro-benzene-1,3-diamine]	≤ 1	≤ 1
Cc1cc(Nc2ncn(-c3cc(F)cc(F)c3)n2)cc(O[C@@H]2CCN(C3COC3)C2)c1 [Compound 178, 1-(3,5-difluorophenyl)-N-[3-methyl-5-[(3R)-1-(oxetan-3-yl)pyrrolidin-3-yl]oxy-phenyl]-1,2,4-triazol-3-amine]	1000 to 10000	1 to 10
Cc1cc(Nc2ncn(-c3ccccc3)n2)cc(N2CCCN(C)CC2)c1 [Compound 179, N-[3-methyl-5-(4-methyl-1,4-diazepan-1-yl)phenyl]-1-phenyl-1,2,4-triazol-3-amine]	100 to 1000	≤ 1
Cc1cc(Nc2ncn(-c3ccncn3)n2)cc(C2CCCN(C3COC3)C2)c1 (stereo not shown) [Compound 180, N-[3-methyl-5-[1-(oxetan-3-yl)-3-piperidyl]phenyl]-1-pyrimidin-4-yl-1,2,4-triazol-3-amine]	100 to 1000	≤ 1
Fc1cc(Nc2ncn(-c3cccc(C(F)(F)F)c3)n2)cc(N2CCOCC2)c1 [Compound 181, N-(3-fluoro-5-morpholino-phenyl)-1-[3-(trifluoromethyl)phenyl]-1,2,4-triazol-3-amine]	≤ 1	100 to 1000
COCCCN1CCC(Nc2cc(C)cc(Nc3ncn(-c4ccccc4)n3)c2)CC1 [Compound 182, N1-[1-(3-methoxypropyl)-4-piperidyl]-5-methyl-N3-(1-phenyl-1,2,4-triazol-3-yl)benzene-1,3-diamine]	1000 to 10000	1 to 10
COc1cc(Nc2ncn(-c3ccc(F)c(F)c3)n2)cc(N2CCN(C3COC3)CC2)c1 [Compound 183, 1-(3,4-difluorophenyl)-N-[3-methoxy-5-[4-(oxetan-3-yl)piperazin-1-yl]phenyl]-1,2,4-triazol-3-amine]	100 to 1000	10 to 100
Fc1cc(-n2cnc(Nc3cc(C4CC4)cc(N4CCN(C5COC5)CC4)c3)n2)ccn1 [Compound 184, N-[3-cyclopropyl-5-[4-(oxetan-3-yl)piperazin-1-yl]phenyl]-1-(2-fluoro-4-pyridyl)-1,2,4-triazol-3-amine]	10 to 100	1 to 10
Cc1cc(Nc2ncn(-c3cc(F)cc(F)c3)n2)cc(N2C[C@H]3C[C@@H]2CN3C2COC2)c1 [Compound 185, 1-(3,5-difluorophenyl)-N-[3-methyl-5-[(1R,4R)-2-(oxetan-3-yl)-2,5-diazabicyclo[2.2.1]heptan-5-yl]phenyl]-1,2,4-triazol-3-amine]	100 to 1000	1 to 10
Cc1cc(Nc2ncn(-c3ccc(C#N)cc3)n2)cc(N2CCCC2)c1 [Compound 186, 4-[3-(3-methyl-5-pyrrolidin-1-yl-anilino)-1,2,4-triazol-1-yl]benzonitrile]	10 to 100	10 to 100
CCN(C)Cc1cc(F)cc(-n2cnc(Nc3cc(C)cc(N4CCN(C5COC5)CC4)c3)n2)c1 [Compound 187, 1-[3-[[ethyl(methyl)amino]methyl]-5-fluoro-phenyl]-N-[3-methyl-5-[4-(oxetan-3-yl)piperazin-1-yl]phenyl]-1,2,4-triazol-3-amine]	100 to 1000	≤ 1
Cc1cc(Nc2ncn(-c3cccc(F)c3)n2)cc(NC2CCN(C3COC3)C2)c1 (stereo not shown) [Compound 188, N3-[1-(3-fluorophenyl)-1,2,4-triazol-3-yl]-5-methyl-N1-[1-(oxetan-3-yl)pyrrolidin-3-yl]benzene-1,3-diamine]	100 to 1000	≤ 1
Fc1cc(-n2cnc(Nc3cc(C(F)F)cc(N4CCN(C5COC5)CC4)c3)n2)ccn1 [Compound 189, N-[3-(difluoromethyl)-5-[4-(oxetan-3-yl)piperazin-1-yl]phenyl]-1-(2-fluoro-4-pyridyl)-1,2,4-triazol-3-amine]	100 to 1000	≤ 1
